Data: patent publication US8653026B2, “Treatment of type 2 diabetes with FTY720” (Diapin Therapeutics LLC, priority 2011, dated 2014)

Tests used:
S1P1 = assay: S1P receptor expression in islets from db/db mice: S1P1; format: in vivo, mouse; conditions: after FTY720 treatment of db/db mice
Text: FIG. 15. Expression of 4 FTY720-bound S1P receptors in the islets isolated from the db/db mice.
FTY720 is phosphorylated in vivo to form FTY720-P that binds S1P1, S1P3, S1P4, and S1P5 but not S1P2 (25). We determined the expression of these receptors in the islets isolated from the untreated and FTY720-treated db/db mice.

[1] = Observation of cancer formation during the study; format: in vivo, mouse; conditions: during the course of this invention, 10 mg/kg
Text: There are several advantages of the present invention. First, FTY720 is a FDA approved medicine for the treatment of patients with relapsing multiple sclerosis (MS) and its safety profile has been well studied during the clinical trial for treatment of relapsing MS, including more than 4,500 patient years of experience, with some patients in their seventh year of treatment. Second, FTY720 is an orally taken therapy and easy to take by patients, compared with insulin and GLP-1 analog therapies that have to be injected into body either by healthcare professionals or by patients themselves. […] Finally, although FTY720 promotes beta-cell regeneration, the risk of tumorigenesis is low.

[2] = patients with relapsing multiple sclerosis; cited from earlier work
db/db mice = assay: Insulin tolerance test; format: in vivo, mouse
Method: FIG. 5B. Insulin tolerance test (ITT). db/db mice with or without FTY720 treatment were fasted for 6 hours, and injected intraperitoneally with human regular insulin (0.55 U/kg) (Sigma), […] Open circle (∘), FTY720-untreated group; solid circle (●), FTY720-treated group. *p<0.05.
For the glucose tolerance test, the mice were fasted for 16 h and intraperitoneally injected with 10% glucose (1 mg/g of body weight). Glucose levels were then measured after 0, 30, 60, 90, and 120 min by a Glucometer Elite (Bayer Corp., Elkhart, Ind.) (29). For the insulin tolerance test, the mice were fasted for 6 h and injected intraperitoneally with human regular insulin (0.55 units/kg) (Sigma). […]

pancreatic islets = assay: Islet morphology (HE and insulin immunostaining) and islet area quantification in pancreas; format: in vivo, mouse
Text: FIG. 7. Hematoxylin and eosin (HE) staining of pancreas from the FTY720-untreated and the treated mice. After 6 and 9 weeks of treatment, pancreases were removed from the db/db mice and embedded in paraffin. Paraffin sections (10 μm thick) were stained with HE and analyzed with a microscope (Scale bar, 50 μm).
FIG. 8. Insulin immunostaining (green fluorescence) of the pancreatic islets. After 6 and 9 weeks treatment of FTY720, pancreases were removed from the db/db mice and embedded in paraffin. Paraffin sections (10 μm thick) were immunostained fluorescently for insulin (green color) (Scale bar 50 μm).
FIG. 9. Stereological quantification of the islet areas in the FTY720-untreated and the FTY720-treated db/db mice. […]
To assess islet area in pancreas after 6 weeks of treatment with FTY720, six consecutive paraffin sections (10 μm) from a pancreas (10 pancreases for the control and 9 pancreases for the FTY720-treated group) were used. All islet images on a whole section were taken by a Axioplan 2 microscope at X10 magnification, each islet area was measured by the Java-based image-processing program ImageJ (National Institutes of Health, Bethesda, Md.), and the sum of all islet areas from a section was considered to be the islet area per pancreas.

beta-cell = assay: In vivo BrdU incorporation (beta-cell regeneration) in pancreas; design: species or system mouse
Method: FIG. 11. BrdU staining in the pancreatic islets after 6 weeks FTY720 treatment. After overnight fasting, the mice were given 1 mg/ml 5-bromo-2′deoxyuridine (BrdU) intraperitoneally. 24 hours later, mice were sacrificed for BrdU staining of pancreas sections. Positive BrdU staining indicates cell proliferation.
FIG. 12. BrdU staining in the duct areas of the pancreas. After 6 weeks FTY720 treatment, overnight fasted mice were given 1 mg/ml 5-bromo-2′deoxyuridine (BrdU) intraperitoneally. 24 hours later, mice were sacrificed for BrdU staining of pancreas sections.
FIG. 13. Insulin immunostaining in newly formed insulin containing cells and islets near duct (arrow) in the FTY720-treated db/db mice (Scale bar, 100 μm).
After overnight fasting, the mice were given 1 mg/ml of 5-bromo-2-deoxyuridine (BrdU) in PBS intraperitoneally. Mice were sacrificed 24 hours after BrdU injection and pancreases were removed and fixed with a 4% formaldehyde solution. The pancreases were then embedded in paraffin and sliced into 10 μm sections. Tissue sections were stained with the anti-BrdU monoclonal antibody provided in BrdU in Situ Detection Kit (BD Biosciences).

[3] = db/db mice after 6 weeks FTY720 treatment, no staining in untreated

- S1P1 expression in islets (S1P1): significantly elevated
- cancer formation [1]: no cancer formation was observed
Compound: CCCCCCCCc1ccc(CCC(N)(CO)CO)cc1 [FTY720, 2-amino-2-[2-(4-octylphenyl)ethyl]propane-1,3-diol]
- cancer formation in phase III clinical trials [2]: without reported cancer formation
- glucose levels in treated vs untreated groups after insulin administration (db/db mice; after 70 min in insulin tolerance test): similar
- insulin sensitivity (db/db mice; db/db mice fasted 6 h, i.p. human regular insulin 0.55 U/kg): not affected
- pancreatic islet size (stereological quantification of islet areas) (pancreatic islets; db/db mice after 6 weeks of treatment, vs untreated group): significantly larger
- islet morphology (pancreatic islets; db/db mice, H&E and insulin immunostaining, after 6 and 9 weeks of treatment): normal islet morphology
- insulin-positive cells or small islets in the pancreatic duct area (beta-cell; FTY720-treated db/db mice, insulin immunostaining): identified
- BrdU incorporation in the pancreatic duct area (beta-cell neogenesis) (beta-cell; [3]): BrdU incorporation was observed
- BrdU staining within the islets (beta-cell proliferation) (beta-cell; [3]): BrdU-positive cells were easily observed
